Laboratory results as given in patent publication US20040235027A1, “Preparation and application of ligand-biopolymer conjugates” (Regent of the University of California, priority 2003, published 2004).

Experiments:
Type in all cases: binding
[1] = tested on: murine anti-PDC monoclonal antibody 2H4; test: xenobiotic-peptide-agarose microarray, reactivity of mAb 2H4; conditions: xenobiotic or lipoic acid coupled to PDC peptide-agarose
Excerpt: Synthesis of mimeotopes and coupling with peptide-agarose conjugate. Carboxylic acid derivatives of twenty-three xenobiotic compounds were used in this study. Compounds 1-19 were synthesized as described in Long, S. A. et al. J. Immunol. 2001, 167:2956 which is herein incorporated by reference in its entirety. The carboxylic acid derivatives are then reacted with NHS to form the corresponding NHS esters. These 23 compounds, in addition to lipoic acid with NHS ester, were coupled to the lysine residue on the PDC-E2 peptide-agarose conjugate as follows. Briefly, 0.4 mg of the PDC-E2 peptide-agarose conjugate and 10 μmol of each of the NHS esters were mixed in 40 μl of DMSO. Mixtures were incubated at room temperature for 2 hours. To ensure complete coupling, a quantitative ninhydrin test at 570 nm was performed.
(§1) Preparation of microarray and analysis of immunoreactivity. Xenobiotic compounds-peptide-agarose mixture were diluted (0.1%) in 0.1 M Na2CO3/NaHCO3 buffer (p)H 9.0), and transferred to 96 well plates. Thereafter mixtures were spotted onto glass slides (Mercedes Medical, Florida) using the Affymetrix 417 Microarrayer (Affymetrix, Santa Clara, Calif.). Each sample was spotted in triplicate, with a spot size of 150 μm in diameter. Spotted microarrays were stored at 4° C. until use. Before use, microarrays were blocked with 3% non-fat dry milk in PBS buffer for 1 hour at room temperature, and individual slides were thereafter incubated with diluted antibody samples (rabbit sera 1:250, murine anti-PDC monoclonal antibody 1:1) in 1 ml of blocking buffer (3% non-fat dry milk in PBS with 0.05% tween-20) (PBST) for 1 hour at room temperature. After thorough washes with PBST, 1 ml of the Cy3 conjugated secondary antibody (1 μg/ml) (Zymed Laboratories Inc. San Francisco, Calif.) in blocking buffer was added to each slide and incubated at room temperature for 30 min. Subsequently slides were washed in PBST for 10 min and in water for 15 sec. […] Mixtures of xenobiotics and agarose were also spotted and analyzed as controls. […]

[2] = tested on: rabbit sera IgG; test: microarray assay of rabbit sera IgG reactivity to small molecule-peptide-agarose conjugates; conditions: sera (n=5) one month post-immunization, serially diluted; dilution of 1:6750 or lower; on PDC-E2 peptide
Description: as §1, with “min.” for “min. Subsequently slides were washed in PBST for 10 min and in water for 15 sec.”
Comparison between ELISA and microarray assay. Rabbit sera (n=5) at one month post-immunization were serially diluted (1:250, 1:750, 1:2250, 1:6750 and 1:20250) and IgG reactivity to small molecule-peptide-agarose conjugates were determined by both the ELISA and microarray assay. […] Likewise, IgG reactivity of rabbit sera at 0, 1, 6, 12 and 22 months post-immunization against recombinant human PDC-E2 protein (see Leung, P. S. et al. J. Immunol. 2003, 170:5326) and KLH (Sigma, St. Louis, Mo.) was determined at 1:100 sera dilution by standard ELISA.
Validation of peptide microarray assay. […] Rabbit sera (n=5) at one month post-immunization with human recombinant PDC-E2 were serially diluted and their IgG reactivity against 6-bromohexanoate, compound 9, lipoic acid on PDC-E2 peptide and non-lipoylated native PDC-E2 peptide were determined by both ELISA and microarray assay (FIG. 13). […]

[3] = tested on: rabbit sera IgG; test: ELISA of rabbit sera IgG reactivity to small molecule-peptide-agarose conjugates; conditions: sera (n=5) one month post-immunization, serially diluted; dilution of 1:6750 or lower; on PDC-E2 peptide
Description: Comparison between ELISA and microarray assay. Rabbit sera (n=5) at one month post-immunization were serially diluted (1:250, 1:750, 1:2250, 1:6750 and 1:20250) and IgG reactivity to small molecule-peptide-agarose conjugates were determined by both the ELISA and microarray assay. Briefly, ELISA plates were coated with 50 μl of each individual xenobiotic compounds-peptide-agarose mixture in DMSO (1 mg/ml) for 2 hours at room temperature, then antigens were removed and plates dried overnight at room temperature. Dried ELISA plates were thereafter blocked with 3% non-fat dry milk in PBS and incubated with serially diluted rabbit sera for 1 hour at room temperature. After washing, the plates were incubated with HRP conjugated mouse anti-rabbit IgG (Zymed, San Francisco, Calif.) antibodies for 30 min at room temperature, washed and incubated with 2,2′-azino-bis(3-ethylbenzthiazoline-6-sulfonic acid) containing hydrogen peroxide (Kirkegaard & Perry Laboratories, Inc, MD). Likewise, IgG reactivity of rabbit sera at 0, 1, 6, 12 and 22 months post-immunization against recombinant human PDC-E2 protein (see Leung, P. S. et al. J. Immunol. 2003, 170:5326) and KLH (Sigma, St. Louis, Mo.) was determined at 1:100 sera dilution by standard ELISA.
Validation of peptide microarray assay. To validate the microarray assay, data obtained using the microarray and ELISA were compared. Rabbit sera (n=5) at one month post-immunization with human recombinant PDC-E2 were serially diluted and their IgG reactivity against 6-bromohexanoate, compound 9, lipoic acid on PDC-E2 peptide and non-lipoylated native PDC-E2 peptide were determined by both ELISA and microarray assay (FIG. 13). […] To validate the sensitivity of the microarray, four different concentrations (0.1%, 0.03%, 0.01% and 0.004%) of HA peptide ([…]) were spotted. Individual arrays were incubated with murine monoclonal anti-HA antibody or normal murine IgG followed by secondary antibody (goat anti-murine IgG) conjugated to Cy3.

[4] = tested on: murine monoclonal anti-HA antibody; test: HA peptide microarray sensitivity validation with anti-HA monoclonal antibody

Compound	reactivity of mAb 2H4 [1]	rabbit sera IgG reactivity, microarray assay [2]	rabbit sera IgG reactivity, ELISA [3]	anti-HA antibody concentration giving dose dependent response ([4]; HA peptide spotted at 0.1%, 0.03%, 0.01%)	anti-HA antibody concentration required ([4]; lowest concentration of HA (0.004%))
O=C(O)CCCC[C@@H]1CCSS1 (racemic) [lipoic acid]	bound strongly	dilution dependent response	dilution dependent response		
O=C(O)CCCCCBr [6-bromohexanoate]	bound strongly	dilution dependent response	dilution dependent response		
DKATIGFEVQEE [non-lipoylated native PDC peptide, 12 mer PDC-E2 peptide on agarose, without xenobiotic or lipoic acid]	Weak reactivity	dilution dependent response	dilution dependent response		
YPYDVPDYA [HA peptide]				≥ 5 ng/mL	> 50 ng/mL
